Assay results published in ChEMBL document CHEMBL5303765, “Data for DCP probe BAY-7081” (2023).

Legend:
[1] = target: D(1A) dopamine receptor (Homo sapiens) (UniProt P21728); settings: Compound concentration 10.0 uM
[2] = target: T1, Myotonin-protein kinase (Homo sapiens) (UniProt Q09013); test: DMPK1 SGC Tm panel (DSF); settings: for ΔTm: Compound concentration 10.0 uM
T1 sequence (whole entry): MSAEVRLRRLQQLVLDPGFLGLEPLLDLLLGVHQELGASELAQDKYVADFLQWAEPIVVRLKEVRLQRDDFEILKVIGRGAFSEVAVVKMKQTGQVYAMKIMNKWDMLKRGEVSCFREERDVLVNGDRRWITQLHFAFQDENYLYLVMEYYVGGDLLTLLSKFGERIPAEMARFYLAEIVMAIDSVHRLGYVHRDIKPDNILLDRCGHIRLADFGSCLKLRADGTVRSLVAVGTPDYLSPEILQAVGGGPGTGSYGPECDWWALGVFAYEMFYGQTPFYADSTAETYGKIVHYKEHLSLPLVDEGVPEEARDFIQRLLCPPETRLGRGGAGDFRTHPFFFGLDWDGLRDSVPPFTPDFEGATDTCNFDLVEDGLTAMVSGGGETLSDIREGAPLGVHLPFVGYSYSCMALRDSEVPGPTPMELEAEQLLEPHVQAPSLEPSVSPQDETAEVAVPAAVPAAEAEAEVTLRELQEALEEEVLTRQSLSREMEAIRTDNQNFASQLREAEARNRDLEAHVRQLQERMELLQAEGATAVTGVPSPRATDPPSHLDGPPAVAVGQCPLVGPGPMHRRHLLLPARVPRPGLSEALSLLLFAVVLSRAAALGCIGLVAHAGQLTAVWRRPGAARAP

[3] = target: T2, Dual specificity mitogen-activated protein kinase kinase 7 (Homo sapiens) (UniProt O14733); test: MAP2K7 SGC Tm panel (DSF); settings: for ΔTm: Compound concentration 10.0 uM
T2 sequence (whole entry): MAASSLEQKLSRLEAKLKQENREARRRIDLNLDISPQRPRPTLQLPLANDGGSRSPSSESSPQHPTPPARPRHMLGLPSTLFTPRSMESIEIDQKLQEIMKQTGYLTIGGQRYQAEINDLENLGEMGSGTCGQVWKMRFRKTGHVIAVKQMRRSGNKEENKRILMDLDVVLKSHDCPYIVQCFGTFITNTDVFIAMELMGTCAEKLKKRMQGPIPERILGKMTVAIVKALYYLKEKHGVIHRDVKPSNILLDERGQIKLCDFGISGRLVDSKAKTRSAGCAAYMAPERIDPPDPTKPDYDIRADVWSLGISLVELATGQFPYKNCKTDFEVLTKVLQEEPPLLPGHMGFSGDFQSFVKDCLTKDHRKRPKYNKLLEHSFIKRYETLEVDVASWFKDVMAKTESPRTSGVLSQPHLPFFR

[4] = target: Aurora kinase B (Homo sapiens) (UniProt Q96GD4); test: AURKB SGC Tm panel (DSF); settings: for ΔTm: Compound concentration 10.0 uM
[5] = target: Mitogen-activated protein kinase 1 (Homo sapiens) (UniProt P28482); test: MAPK1 SGC Tm panel (DSF); settings: for ΔTm: Compound concentration 10.0 uM
[6] = target: Ribosomal protein S6 kinase alpha-5 (Homo sapiens) (UniProt O75582); test: RPS6KA5 SGC Tm panel (DSF); settings: for ΔTm: Compound concentration 10.0 uM
[7] = target: 5-hydroxytryptamine receptor 1B (Homo sapiens) (UniProt P28222); settings: Compound concentration 10.0 uM
[8] = target: BMP-2-inducible protein kinase (Homo sapiens) (UniProt Q9NSY1); test: BMP2K SGC Tm panel (DSF); settings: for ΔTm: Compound concentration 10.0 uM
[9] = target: T3, Ephrin type-B receptor 1 (Homo sapiens) (UniProt P54762); test: EPHB1 SGC Tm panel (DSF); settings: for ΔTm: Compound concentration 10.0 uM
T3 sequence (whole entry): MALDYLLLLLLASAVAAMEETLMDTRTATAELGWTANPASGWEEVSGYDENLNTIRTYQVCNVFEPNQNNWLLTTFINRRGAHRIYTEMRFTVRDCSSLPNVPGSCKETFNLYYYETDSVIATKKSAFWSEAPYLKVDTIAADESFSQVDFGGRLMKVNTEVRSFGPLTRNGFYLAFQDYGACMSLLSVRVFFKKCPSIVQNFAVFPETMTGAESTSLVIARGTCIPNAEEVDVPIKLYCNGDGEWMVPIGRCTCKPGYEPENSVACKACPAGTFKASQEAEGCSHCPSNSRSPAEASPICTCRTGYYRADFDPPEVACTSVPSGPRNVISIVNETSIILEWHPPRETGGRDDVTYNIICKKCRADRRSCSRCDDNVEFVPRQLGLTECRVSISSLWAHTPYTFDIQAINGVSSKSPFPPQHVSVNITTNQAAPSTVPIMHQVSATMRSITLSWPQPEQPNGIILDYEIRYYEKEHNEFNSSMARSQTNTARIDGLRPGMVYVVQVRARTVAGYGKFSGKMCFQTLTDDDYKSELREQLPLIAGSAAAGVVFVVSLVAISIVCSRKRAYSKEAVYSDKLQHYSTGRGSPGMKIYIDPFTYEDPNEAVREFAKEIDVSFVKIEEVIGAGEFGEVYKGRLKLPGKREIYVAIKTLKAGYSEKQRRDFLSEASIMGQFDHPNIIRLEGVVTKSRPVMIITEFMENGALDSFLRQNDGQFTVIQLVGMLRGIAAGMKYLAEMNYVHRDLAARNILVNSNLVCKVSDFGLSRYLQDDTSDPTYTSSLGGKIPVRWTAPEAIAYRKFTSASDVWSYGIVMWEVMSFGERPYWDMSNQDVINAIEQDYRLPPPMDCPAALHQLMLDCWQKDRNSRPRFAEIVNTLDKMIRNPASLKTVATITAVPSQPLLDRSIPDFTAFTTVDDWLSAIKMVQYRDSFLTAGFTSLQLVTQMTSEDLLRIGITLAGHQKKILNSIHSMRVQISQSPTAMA

[10] = target: T4, Dual specificity mitogen-activated protein kinase kinase 4 (Homo sapiens) (UniProt P45985); test: MAP2K4 SGC Tm panel (DSF); settings: for ΔTm: Compound concentration 10.0 uM
T4 sequence (whole entry): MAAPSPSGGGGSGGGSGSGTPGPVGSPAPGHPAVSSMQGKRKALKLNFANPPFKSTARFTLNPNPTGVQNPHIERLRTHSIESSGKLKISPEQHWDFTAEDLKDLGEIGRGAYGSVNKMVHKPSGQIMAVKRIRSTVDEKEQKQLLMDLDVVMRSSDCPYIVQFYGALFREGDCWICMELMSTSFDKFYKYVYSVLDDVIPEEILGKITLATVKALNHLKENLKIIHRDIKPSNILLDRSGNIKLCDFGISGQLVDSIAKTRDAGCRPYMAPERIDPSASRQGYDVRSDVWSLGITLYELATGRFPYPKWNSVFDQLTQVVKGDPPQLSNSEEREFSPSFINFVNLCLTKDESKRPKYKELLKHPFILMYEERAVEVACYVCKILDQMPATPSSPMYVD

Mitogen-activated protein kinase 1 (Homo sapiens), sequence (P28482 whole entry): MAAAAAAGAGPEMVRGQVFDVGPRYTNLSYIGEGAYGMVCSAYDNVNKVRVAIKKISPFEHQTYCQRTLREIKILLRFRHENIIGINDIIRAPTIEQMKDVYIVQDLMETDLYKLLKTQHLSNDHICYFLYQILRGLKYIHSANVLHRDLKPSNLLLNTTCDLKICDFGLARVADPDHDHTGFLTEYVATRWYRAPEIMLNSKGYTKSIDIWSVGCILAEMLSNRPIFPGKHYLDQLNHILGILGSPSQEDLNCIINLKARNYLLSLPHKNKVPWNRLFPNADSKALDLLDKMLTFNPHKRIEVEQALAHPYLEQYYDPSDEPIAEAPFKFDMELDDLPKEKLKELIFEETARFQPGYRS
Ribosomal protein S6 kinase alpha-5 (Homo sapiens), sequence (O75582 whole entry, looked up): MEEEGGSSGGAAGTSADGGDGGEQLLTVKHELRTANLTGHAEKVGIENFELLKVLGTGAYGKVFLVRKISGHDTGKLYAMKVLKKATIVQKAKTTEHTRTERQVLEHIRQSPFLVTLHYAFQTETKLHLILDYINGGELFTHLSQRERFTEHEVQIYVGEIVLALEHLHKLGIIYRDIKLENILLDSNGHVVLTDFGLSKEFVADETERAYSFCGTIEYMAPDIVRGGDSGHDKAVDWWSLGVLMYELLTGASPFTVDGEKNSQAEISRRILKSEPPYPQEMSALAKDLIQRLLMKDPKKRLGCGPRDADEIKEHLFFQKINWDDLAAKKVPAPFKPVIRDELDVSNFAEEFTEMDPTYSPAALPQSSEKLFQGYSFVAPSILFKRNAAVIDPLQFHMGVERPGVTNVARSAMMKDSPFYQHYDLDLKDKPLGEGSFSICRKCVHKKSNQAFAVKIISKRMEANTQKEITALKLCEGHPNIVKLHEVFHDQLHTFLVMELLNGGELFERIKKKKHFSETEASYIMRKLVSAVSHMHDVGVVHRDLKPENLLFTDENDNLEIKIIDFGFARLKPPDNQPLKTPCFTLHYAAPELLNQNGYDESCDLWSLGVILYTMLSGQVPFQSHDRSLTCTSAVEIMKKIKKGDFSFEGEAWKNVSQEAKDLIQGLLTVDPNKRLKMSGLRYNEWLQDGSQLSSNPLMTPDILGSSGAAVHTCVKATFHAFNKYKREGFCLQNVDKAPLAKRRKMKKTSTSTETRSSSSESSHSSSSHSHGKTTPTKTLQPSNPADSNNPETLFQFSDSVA
5-hydroxytryptamine receptor 1B (Homo sapiens), sequence (P28222 whole entry): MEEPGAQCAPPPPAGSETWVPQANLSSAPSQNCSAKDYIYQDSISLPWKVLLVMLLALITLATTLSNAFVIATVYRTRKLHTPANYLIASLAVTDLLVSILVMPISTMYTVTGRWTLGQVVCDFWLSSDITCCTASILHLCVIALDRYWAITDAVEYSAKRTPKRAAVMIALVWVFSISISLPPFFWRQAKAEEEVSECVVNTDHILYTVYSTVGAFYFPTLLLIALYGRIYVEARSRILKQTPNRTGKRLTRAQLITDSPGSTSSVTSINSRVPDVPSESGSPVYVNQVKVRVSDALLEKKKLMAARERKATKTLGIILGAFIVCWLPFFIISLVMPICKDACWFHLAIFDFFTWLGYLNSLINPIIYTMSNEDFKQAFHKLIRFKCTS
BMP-2-inducible protein kinase (Homo sapiens), sequence (Q9NSY1 whole entry, looked up): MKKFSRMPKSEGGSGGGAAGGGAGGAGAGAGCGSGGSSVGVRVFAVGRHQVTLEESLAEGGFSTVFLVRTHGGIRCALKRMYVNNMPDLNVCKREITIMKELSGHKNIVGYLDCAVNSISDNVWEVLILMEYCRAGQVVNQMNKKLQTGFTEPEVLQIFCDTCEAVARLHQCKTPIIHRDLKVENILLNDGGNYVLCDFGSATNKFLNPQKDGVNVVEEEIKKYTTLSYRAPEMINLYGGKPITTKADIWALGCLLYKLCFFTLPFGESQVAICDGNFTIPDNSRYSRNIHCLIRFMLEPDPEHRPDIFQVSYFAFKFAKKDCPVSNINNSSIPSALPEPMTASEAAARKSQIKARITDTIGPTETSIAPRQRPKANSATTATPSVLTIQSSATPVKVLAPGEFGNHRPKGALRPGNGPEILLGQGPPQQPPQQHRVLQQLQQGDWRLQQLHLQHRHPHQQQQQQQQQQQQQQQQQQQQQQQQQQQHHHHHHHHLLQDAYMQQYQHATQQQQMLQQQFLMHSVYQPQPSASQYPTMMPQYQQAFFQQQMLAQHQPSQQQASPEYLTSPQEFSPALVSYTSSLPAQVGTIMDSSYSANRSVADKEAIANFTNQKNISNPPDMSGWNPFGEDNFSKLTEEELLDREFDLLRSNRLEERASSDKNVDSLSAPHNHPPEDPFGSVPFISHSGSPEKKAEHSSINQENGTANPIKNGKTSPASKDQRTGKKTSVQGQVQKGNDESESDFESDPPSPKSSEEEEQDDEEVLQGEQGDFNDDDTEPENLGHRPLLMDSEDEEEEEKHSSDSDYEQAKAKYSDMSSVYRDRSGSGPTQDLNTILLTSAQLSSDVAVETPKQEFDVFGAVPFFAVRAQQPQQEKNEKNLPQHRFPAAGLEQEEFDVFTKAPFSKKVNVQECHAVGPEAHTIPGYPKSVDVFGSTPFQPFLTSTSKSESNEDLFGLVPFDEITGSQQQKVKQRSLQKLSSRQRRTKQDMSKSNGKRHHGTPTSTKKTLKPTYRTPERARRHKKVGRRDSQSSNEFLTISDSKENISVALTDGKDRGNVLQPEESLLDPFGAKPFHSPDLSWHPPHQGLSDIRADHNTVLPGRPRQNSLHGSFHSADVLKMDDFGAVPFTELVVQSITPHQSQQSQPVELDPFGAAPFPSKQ
Aurora kinase B (Homo sapiens), sequence (Q96GD4 whole entry): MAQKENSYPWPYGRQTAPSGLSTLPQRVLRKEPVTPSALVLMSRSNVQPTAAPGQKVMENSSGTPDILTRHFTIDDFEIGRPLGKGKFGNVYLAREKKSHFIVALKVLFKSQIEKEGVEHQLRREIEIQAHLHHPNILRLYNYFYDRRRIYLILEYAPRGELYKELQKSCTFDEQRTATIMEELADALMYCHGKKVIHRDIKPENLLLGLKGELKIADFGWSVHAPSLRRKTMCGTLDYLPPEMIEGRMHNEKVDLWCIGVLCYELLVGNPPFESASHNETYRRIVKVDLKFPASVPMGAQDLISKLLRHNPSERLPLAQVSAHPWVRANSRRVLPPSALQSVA
D(1A) dopamine receptor (Homo sapiens), sequence (P21728 whole entry): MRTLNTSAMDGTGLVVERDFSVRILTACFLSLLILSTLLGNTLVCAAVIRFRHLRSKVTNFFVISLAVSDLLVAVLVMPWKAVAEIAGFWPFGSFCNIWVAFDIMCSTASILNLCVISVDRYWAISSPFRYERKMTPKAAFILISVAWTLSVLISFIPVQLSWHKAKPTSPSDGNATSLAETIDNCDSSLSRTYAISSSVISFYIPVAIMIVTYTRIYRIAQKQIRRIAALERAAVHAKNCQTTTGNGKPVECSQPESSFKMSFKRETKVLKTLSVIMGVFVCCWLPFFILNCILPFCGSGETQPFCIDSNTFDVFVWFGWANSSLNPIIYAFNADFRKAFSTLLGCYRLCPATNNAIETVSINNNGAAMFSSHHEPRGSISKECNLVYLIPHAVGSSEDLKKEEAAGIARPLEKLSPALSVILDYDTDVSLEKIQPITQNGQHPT

Row | SMILES | inhibition [1] [%] | delta Tm Staurosporine positive control [2] | ΔTm [2] | delta Tm Staurosporine positive control [3] | ΔTm [3] | delta Tm Staurosporine positive control [4] | ΔTm [4] | delta Tm Staurosporine positive control [5] | ΔTm [5] | delta Tm Staurosporine positive control [6] | ΔTm [6] | inhibition [7] [%] | delta Tm Staurosporine positive control [8] | ΔTm [8] | delta Tm Staurosporine positive control [9] | ΔTm [9] | delta Tm Staurosporine positive control [10] | ΔTm [10]
1 | CCC[C@H]1CNCc2c1[nH]c(=O)c(C#N)c2N1CCC2(CC1)CC2 | -2.37 | 9.38 | -0.0275 | 7.05 | -1.17 | 14.1 | -0.229 | 3.56 | -0.182 | 13.8 | -0.275 | -6.99 | 18.7 | -0.103 | 5.62 | 0.0299 | 11.8 | -0.306
2 | CCC[C@@H]1CNCc2c1[nH]c(=O)c(C#N)c2N1CCC2(CC1)CC2 | 11 | 9.38 | -0.138 | 7.05 | -1.17 | 14.1 | -0.199 | 3.56 | -0.19 | 13.8 | -0.505 | 2.21 | 18.7 | -0.192 | 5.62 | 0.00973 | 11.8 | -0.34
